From the supplement of paper PMC10307832

Experiments:
Test in all cases: relative viability (nuclei count vs DMSO), 5 days (fraction); higher = more cells survive
[1] = system: A-427
In short: (§1)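 Relative viability is defined as nuclei in treated wells over nuclei in vehicle wells. Duplicate plates were run and medians reported. Lung cancer cell lines in 1536-well plates were dosed by pin tool one day after seeding, with one drug or with a fixed anchor-drug dose plus five library-drug doses (not always all listed) in √10 steps, and nuclei were counted after 5 days.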

[2] = system: HCC-15
In short: as §1

[3] = system: HCC-78
In short: as §1

[4] = system: HOP-62
In short: as §1

[5] = system: LC-2-ad
In short: as §1

[6] = system: LXF-289
In short: as §1

[7] = system: NCI-H1734
In short: as §1

[8] = system: NCI-H1755
In short: as §1

[9] = system: NCI-H1792
In short: as §1

[10] = system: NCI-H1915
In short: as §1

[11] = system: NCI-H1975
In short: as §1

[12] = system: NCI-H2126
In short: as §1

[13] = system: NCI-H2228
In short: as §1

[14] = system: NCI-H2347
In short: as §1

[15] = system: NCI-H647
In short: as §1

[16] = system: PC-3 [JPC-3]
In short: as §1

[17] = system: RERF-LC-KJ
In short: as §1

[18] = system: SK-LU-1
In short: as §1

[19] = system: SW 1573
In short: as §1

Nc1ccn([C@@H]2O[C@H](CO)[C@@H](O)[C@@H]2O)c(=O)n1 [Cytarabine] + CC1(C)CCC(c2ccc(Cl)cc2)=C(CN2CCN(c3ccc(C(=O)NS(=O)(=O)c4ccc(N[C@H](CCN5CCOCC5)CSc5ccccc5)c(S(=O)(=O)C(F)(F)F)c4)cc3)CC2)C1 [Navitoclax] (partner 0.5 µM)
relative viability ([1]; first compound 0.005 µM): 0.813
relative viability ([1]; first compound 0.01581 µM): 0.496
relative viability ([1]; first compound 0.05 µM): 0.257
relative viability ([1]; first compound 0.1581 µM): 0.154
relative viability ([1]; first compound 0.5 µM): 0.16
relative viability ([2]; first compound 0.005 µM): 0.669
relative viability ([2]; first compound 0.01581 µM): 0.733
relative viability ([2]; first compound 0.05 µM): 0.609
relative viability ([2]; first compound 0.1581 µM): 0.562
relative viability ([2]; first compound 0.5 µM): 0.43
relative viability ([3]; first compound 0.005 µM): 0.879
relative viability ([3]; first compound 0.01581 µM): 0.652
relative viability ([3]; first compound 0.05 µM): 0.684
relative viability ([3]; first compound 0.1581 µM): 0.364
relative viability ([3]; first compound 0.5 µM): 0.219
relative viability ([4]; first compound 0.005 µM): 0.946
relative viability ([4]; first compound 0.01581 µM): 0.405
relative viability ([4]; first compound 0.05 µM): 0.342
relative viability ([4]; first compound 0.1581 µM): 0.104
relative viability ([4]; first compound 0.5 µM): 0.0809
relative viability ([5]; first compound 0.005 µM): 0.385
relative viability ([5]; first compound 0.01581 µM): 0.328
relative viability ([5]; first compound 0.05 µM): 0.268
relative viability ([5]; first compound 0.1581 µM): 0.2
relative viability ([5]; first compound 0.5 µM): 0.188
relative viability ([6]; first compound 0.005 µM): 0.805
relative viability ([6]; first compound 0.01581 µM): 0.944
relative viability ([6]; first compound 0.05 µM): 0.564
relative viability ([6]; first compound 0.1581 µM): 0.395
relative viability ([6]; first compound 0.5 µM): 0.253
relative viability ([7]; first compound 0.005 µM): 0.418
relative viability ([7]; first compound 0.01581 µM): 0.322
relative viability ([7]; first compound 0.05 µM): 0.197
relative viability ([7]; first compound 0.1581 µM): 0.142
relative viability ([7]; first compound 0.5 µM): 0.126
relative viability ([8]; first compound 0.005 µM): 0.914
relative viability ([8]; first compound 0.01581 µM): 0.821
relative viability ([8]; first compound 0.05 µM): 0.583
relative viability ([8]; first compound 0.1581 µM): 0.201
relative viability ([8]; first compound 0.5 µM): 0.194
relative viability ([9]; first compound 0.005 µM): 0.339
relative viability ([9]; first compound 0.01581 µM): 0.55
relative viability ([9]; first compound 0.05 µM): 0.223
relative viability ([9]; first compound 0.1581 µM): 0.304
relative viability ([9]; first compound 0.5 µM): 0.246
relative viability ([10]; first compound 0.005 µM): 0.799
relative viability ([10]; first compound 0.01581 µM): 0.719
relative viability ([10]; first compound 0.05 µM): 0.714
relative viability ([10]; first compound 0.1581 µM): 0.411
relative viability ([10]; first compound 0.5 µM): 0.386
relative viability ([11]; first compound 0.005 µM): 0.944
relative viability ([11]; first compound 0.01581 µM): 1.26
relative viability ([11]; first compound 0.05 µM): 1.1
relative viability ([11]; first compound 0.1581 µM): 0.567
relative viability ([11]; first compound 0.5 µM): 0.359
relative viability ([12]; first compound 0.005 µM): 0.866
relative viability ([12]; first compound 0.01581 µM): 0.705
relative viability ([12]; first compound 0.05 µM): 0.679
relative viability ([12]; first compound 0.1581 µM): 0.53
relative viability ([12]; first compound 0.5 µM): 0.454
relative viability ([13]; first compound 0.005 µM): 0.504
relative viability ([13]; first compound 0.01581 µM): 0.544
relative viability ([13]; first compound 0.05 µM): 0.0741
relative viability ([13]; first compound 0.1581 µM): 0.0929
relative viability ([13]; first compound 0.5 µM): 0.0928
relative viability ([14]; first compound 0.005 µM): 0.911
relative viability ([14]; first compound 0.01581 µM): 0.786
relative viability ([14]; first compound 0.05 µM): 0.635
relative viability ([14]; first compound 0.1581 µM): 0.531
relative viability ([14]; first compound 0.5 µM): 0.449
relative viability ([15]; first compound 0.005 µM): 0.73
relative viability ([15]; first compound 0.01581 µM): 0.517
relative viability ([15]; first compound 0.05 µM): 0.148
relative viability ([15]; first compound 0.1581 µM): 0.092
relative viability ([15]; first compound 0.5 µM): 0.0675
relative viability ([16]; first compound 0.005 µM): 0.753
relative viability ([16]; first compound 0.01581 µM): 0.774
relative viability ([16]; first compound 0.05 µM): 0.7
relative viability ([16]; first compound 0.1581 µM): 0.605
relative viability ([16]; first compound 0.5 µM): 0.556
relative viability ([17]; first compound 0.005 µM): 0.772
relative viability ([17]; first compound 0.01581 µM): 1.02
relative viability ([17]; first compound 0.05 µM): 1.08
relative viability ([17]; first compound 0.1581 µM): 0.509
relative viability ([17]; first compound 0.5 µM): 0.325
relative viability ([18]; first compound 0.005 µM): 0.775
relative viability ([18]; first compound 0.01581 µM): 0.703
relative viability ([18]; first compound 0.05 µM): 0.34
relative viability ([18]; first compound 0.1581 µM): 0.266
relative viability ([18]; first compound 0.5 µM): 0.179
relative viability ([19]; first compound 0.005 µM): 0.979
relative viability ([19]; first compound 0.01581 µM): 0.79
relative viability ([19]; first compound 0.05 µM): 0.556
relative viability ([19]; first compound 0.1581 µM): 0.223
relative viability ([19]; first compound 0.5 µM): 0.103
